Assay results published in US8815857B2 (Boehringer Ingelheim International GmbH, priority 2011, dated 2014).
Values after ≈ are worked out from the molar mass of the structure shown.

Key:
[1] = Assessment of solubility: HT solubility in pION buffer, UV spectrophotometry; settings: 16-19 h incubation, 1.0% DMSO; for solubility: pION system solution buffer, kinetic from dmso stock
[2] = target: T1, Recombinant human soluble guanylate cyclase (sGC), alpha 1 / beta 1 subunits, heme-free (Homo sapiens, UniProt Q02108+Q02153); test: Molecular assay: cGMP formation by heme-free recombinant sGC (CisBio cGMP detection kit); format: biochemical; settings: 300 pM heme-free sGC, 37° C., 60 min, cGMP readout; read-out: EC50 nM, Activity of Compounds in Molecular Assay
T1 construct: histidine tag (C); made in house; host or cells: Sf9 insect cells (baculovirus coinfection)
T1 sequence (Q02108 1-690 partner): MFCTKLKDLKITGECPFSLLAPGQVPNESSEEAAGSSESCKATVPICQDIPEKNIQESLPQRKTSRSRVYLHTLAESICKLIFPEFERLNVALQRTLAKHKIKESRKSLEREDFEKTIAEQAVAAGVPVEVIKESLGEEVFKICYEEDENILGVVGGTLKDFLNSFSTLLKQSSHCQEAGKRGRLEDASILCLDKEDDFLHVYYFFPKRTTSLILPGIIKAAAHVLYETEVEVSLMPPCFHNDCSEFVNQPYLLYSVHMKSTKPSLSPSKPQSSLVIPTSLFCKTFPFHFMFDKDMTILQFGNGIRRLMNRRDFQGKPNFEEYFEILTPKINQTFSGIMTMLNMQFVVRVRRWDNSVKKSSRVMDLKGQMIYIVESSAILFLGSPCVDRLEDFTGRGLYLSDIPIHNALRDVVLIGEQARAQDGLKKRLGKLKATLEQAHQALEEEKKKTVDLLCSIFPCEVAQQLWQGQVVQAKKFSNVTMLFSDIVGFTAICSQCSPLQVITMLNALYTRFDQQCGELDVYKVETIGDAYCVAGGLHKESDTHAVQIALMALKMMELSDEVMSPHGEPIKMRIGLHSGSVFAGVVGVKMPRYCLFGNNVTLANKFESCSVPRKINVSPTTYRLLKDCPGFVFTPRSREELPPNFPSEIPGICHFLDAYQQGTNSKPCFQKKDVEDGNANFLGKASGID
T1 sequence (Q02153 1-619): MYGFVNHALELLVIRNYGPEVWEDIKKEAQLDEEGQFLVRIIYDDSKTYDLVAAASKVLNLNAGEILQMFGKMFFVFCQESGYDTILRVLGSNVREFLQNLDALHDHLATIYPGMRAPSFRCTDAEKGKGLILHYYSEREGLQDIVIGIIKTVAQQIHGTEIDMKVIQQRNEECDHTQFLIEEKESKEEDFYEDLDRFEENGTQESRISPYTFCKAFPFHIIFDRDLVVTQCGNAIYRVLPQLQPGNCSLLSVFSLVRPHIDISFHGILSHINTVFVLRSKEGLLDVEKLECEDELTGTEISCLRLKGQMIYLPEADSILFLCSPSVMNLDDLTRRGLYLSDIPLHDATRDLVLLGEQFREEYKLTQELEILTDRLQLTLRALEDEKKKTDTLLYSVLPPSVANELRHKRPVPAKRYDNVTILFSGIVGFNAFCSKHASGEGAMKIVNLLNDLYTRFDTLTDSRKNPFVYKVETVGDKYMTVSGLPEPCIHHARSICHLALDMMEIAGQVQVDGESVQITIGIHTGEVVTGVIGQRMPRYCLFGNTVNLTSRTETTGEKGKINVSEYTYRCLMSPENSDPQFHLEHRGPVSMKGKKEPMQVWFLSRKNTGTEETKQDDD
Procedure: Recombinant human soluble guanylate cyclase (sGC) is purified from Sf9 insect cells coinfected with baculoviruses expressing the alpha 1 or beta 1 subunit of sGC, both with a C-terminal histidine tag. Heme-free sGC is prepared by treating cell lysate with a final concentration of 0.5% Tween 20 prior to purification on a nickel affinity column.
sGC catalyzes the conversion of guanosine-5′-triphosphate (GTP) to cyclic guanosine monophosphate (cGMP). The activity of sGC is measured in vitro using the commercially available CisBio cGMP detection kit (catalog # 62GM2PEB) in a 384 well format. In brief, 300 pM heme-free sGC is incubated in reaction buffer (50 mM MOPS pH 6.8, 0.2 N KOH, 50 mM NaCl, 2 mM MgCl2, 0.1% BSA, 1.25 mM IBMX, 0.25 mM TCEP, 50 nM GTP) in the presence or absence of dilutions of test compounds diluted in DMSO (final concentration of 1%) in a volume of 10 microL at 37° C. for 60 min. Undiluted reaction products or an 80-fold dilution of reaction products (10 microL of either) prepared in reaction buffer containing 0.2 mM TCEP and 10 mM EDTA is mixed with 5 microL of d2-cGMP plus 5 microL of Eu^3+ cryptate-labeled anti-cGMP, each diluted in buffer containing 0.1 M KPO4 pH 7.5, 0.4 M KF, 20 mM EDTA, 0.2% BSA. After a one h incubation at room temperature in the dark, the mixtures are quantified on an EnVision plate reader (PerkinElmer) according to manufacturer instructions (laser excitation 337 nm, emission 620 and 665 nm). The ratio at each compound concentration is converted to nM cGMP using the linear portion of a calibration curve. Log compound concentration is plotted against combined undiluted and diluted nM cGMP values to determine the EC50 for each curve.

[3] = pH 4.5, pH 4.5, aqueous buffer, Solubility (pH 4.5), pH 4.5 buffer
[4] = pH 7.4, pH 7.4, aqueous buffer, Solubility (pH 7.4), pH 7.4 buffer

Structure (SMILES)	solubility [1, 3]	solubility [1, 4]	EC50 [2]	Solubility (pH 4.5) ([1]; pH 4.5 buffer)	Solubility (pH 7.4) ([1]; pH 7.4 buffer)
Cc1ccc(OCc2ccc(CN3CCOCC3)cc2C)c(-c2csc(N3CCC(C)(C(=O)O)CC3)n2)c1 [Compound 51]	> 58 µg/mL	31 µg/mL (≈ 57.9 µM)	1100 nM		
N#Cc1cc(CN2CCOCC2)ccc1COc1c(Cl)cccc1-c1csc(N2CCC(C(=O)O)CC2)n1 [Compound 81]	36 µg/mL (≈ 65.1 µM)	38 µg/mL (≈ 68.7 µM)	70 nM		
Cc1cc(C(=O)N2CCCCC2)ccc1COc1ccc(F)cc1-c1csc(N2CCC(C(=O)O)CC2)n1 [Compound 59]	0.5 µg/mL (≈ 0.93 µM)	> 53 µg/mL	39 nM		
Cc1ccc(OCc2ccc(CN3CCS(=O)(=O)CC3)cc2C)c(-c2csc(N3CCC(C(=O)O)CC3)n2)c1 [Compound 104]	0.35 µg/mL (≈ 0.614 µM)	> 68 µg/mL	19 nM		
Cc1ccc(OCc2ccc(CN3CCS(=O)(=O)CC3)cc2C)c(-c2csc(N3CC4C(C3)C4C(=O)O)n2)c1 (stereo not drawn) [Compound 101]	3 µg/mL (≈ 5.28 µM)	> 56 µg/mL	1700 nM		
Cc1cc(CN2CCOCC2)ccc1COc1ccccc1-c1csc(N2CCC(C(=O)O)C(C)C2)n1 (stereo not drawn) [Compound 2]			320 nM	>71 μg/mL	>71 μg/mL
Cc1ccc(OCc2ccc(C(=O)N3CCCC3)cc2C#N)c(-c2csc(N3CCC(C(=O)O)CC3)n2)c1 [Compound 30, 1-[4-[2-[[2-cyano-4-(pyrrolidine-1-carbonyl)phenyl]methoxy]-5-methyl-phenyl]thiazol-2-yl]piperidine-4-carboxylic acid]	3.1 µg/mL (≈ 5.84 µM)	> 53 µg/mL	61 nM		
Cc1cc(C(=O)N2CCCCC2)ccc1COc1ccc(C#N)cc1-c1csc(N2CC3C(C2)C3C(=O)O)n1 (stereo not drawn) [Compound 64]		> 54 µg/mL	1800 nM	0.1 μg/mL	
Cc1ccc(OCc2ccc(CN3CCOCC3)cc2C)c(-c2csc(NCCC(=O)O)n2)c1 [Compound 3]	> 52 µg/mL	> 52 µg/mL	1300 nM		
Cc1ccc(OCc2ccc(CN3CCOCC3)cc2C)c(-c2csc(N3CCC(C(=O)O)C3)n2)c1 (stereo not drawn) [Compound 6]	> 62 µg/mL	> 62 µg/mL	610 nM		
Cc1ccc(OCc2ccc(C(=O)N3CCCCC3)cc2C)c(-c2csc(N3C4CCC3CC(C(=O)O)C4)n2)c1 (stereo not drawn) [Compound 88]	0.45 µg/mL (≈ 0.804 µM)	> 55 µg/mL	15 nM		
Cc1ccc(OCc2ccc(CNC(C)(C)CO)cc2C)c(-c2csc(N3CCC(C(=O)O)CC3)n2)c1 [Compound 26]	> 63 µg/mL	> 63 µg/mL	2000 nM		
Cc1ccc(OCc2ccc(C(=O)N3CCCCC3)cc2C)c(-c2csc(N3CC4CCC(C3)C4C(=O)O)n2)c1 (stereo not drawn) [Compound 89, 3-(4-{5-methyl-2-[2-methyl-4-(piperidine-1-carbonyl)-benzyloxy]-phenyl}-thiazol-2-yl)-3-aza-bicyclo[3.2.1]octane-8-carboxylic acid]	0.35 µg/mL (≈ 0.625 µM)	32 µg/mL (≈ 57.2 µM)	2.5 nM		
Cc1ccc(OCc2ccc(CNC(C)(C)CO)cc2C#N)c(-c2csc(N3CCC(C(=O)O)CC3)n2)c1 [Compound 47]	> 64 µg/mL	> 64 µg/mL	4000 nM		
Cc1cccc(-c2csc(N3CCC(C(=O)O)CC3)n2)c1OCc1ccc(CN2CCOCC2)cc1C#N [Compound 36]	> 64 µg/mL	> 64 µg/mL	140 nM		
Cc1ccc(OCc2ccc(C(=O)N3CCOCC3)cc2C)c(-c2csc(N3CCC(C(=O)O)CC3)n2)c1 [Compound 49]	13 µg/mL (≈ 24.3 µM)	> 53 µg/mL	130 nM		

Further lines, results first:

solubility [1, 3]	solubility [1, 4]	EC50 [2]	Solubility (pH 4.5) ([1]; pH 4.5 buffer)	Solubility (pH 7.4) ([1]; pH 7.4 buffer)	Structure (SMILES)
41 µg/mL (≈ 78.7 µM)	> 63 µg/mL	5600 nM			COCCNCc1ccc(COc2ccc(C#N)cc2-c2csc(N3CCC(C(=O)O)CC3)n2)c(C)c1 [Compound 172]
0.2 µg/mL (≈ 0.331 µM)	36 µg/mL (≈ 59.6 µM)	38 nM			Cc1cc(CN2CCS(=O)(=O)CC2)ccc1COc1ccc(Cl)cc1-c1csc(N2CCC(C(=O)O)CC2C)n1 (stereo not drawn) [Compound 143]
8.5 µg/mL (≈ 13.5 µM)	30 µg/mL (≈ 47.8 µM)	80 nM			Cc1ccc(OCc2ccc(CN3CCN(S(=O)(=O)N(C)C)CC3)cc2C)c(-c2csc(N3CCC(C(=O)O)CC3)n2)c1 [Compound 200]
0.15 µg/mL (≈ 0.255 µM)	> 58 µg/mL	89 nM			Cc1cc(CN2CCS(=O)(=O)CC2)ccc1COc1ccc(F)cc1-c1csc(N2CCC(C(=O)O)C(C)C2)n1 (stereo not drawn) [Compound 129]
> 55 µg/mL	> 55 µg/mL	990 nM			Cc1ccc(OCc2ccc(CN3CCOCC3)cc2C)c(-c2csc(N(C)CCCC(=O)O)n2)c1 [Compound 179]
0.3 µg/mL (≈ 0.51 µM)	> 58 µg/mL	30 nM			Cc1cc(C(=O)N2CCCCC2)ccc1COc1ccccc1-c1csc(N2CCC(C(=O)O)CC2C(F)(F)F)n1 (stereo not drawn) [Compound 130]
0.45 µg/mL (≈ 0.694 µM)	> 64 µg/mL	3100 nM			Cc1cc(CN2CCS(=O)(=O)CC2)ccc1COc1ccc(C#N)cc1-c1csc(N2CCC(C(=O)O)C(C(F)(F)F)C2)n1 (stereo not drawn) [Compound 156]
		150 nM			CCC(=O)N1CCN(Cc2ccc(COc3ccc(C)cc3-c3csc(N4CCC(C(=O)O)CC4)n3)c(C)c2)CC1 [Compound 194]
		2700 nM			Cc1cc(CN2CCOCC2)ccc1COc1ccccc1-c1csc(N2CCC(C(=O)O)C(C(F)(F)F)C2)n1 (stereo not drawn) [Compound 185]
		4400 nM			Cc1cc(C(=O)N2CCCCC2)ccc1COc1ccc(C#N)cc1-c1csc([C@H]2CC[C@H](C(=O)O)CC2)n1 [Compound 183]
